Data published in patent US20230356105A1, “TETRAAZADODECANE BASED CHELATING AGENTS FOR SEPARATION OF RARE EARTH ELEMENTS AND METHOD THEREFOR” (Ustav Organicke Chemie a Biochemie AV CR V.V.I., priority 2020, published 2023).

Experiment: Use of additives to improve separation of Nd/Dy mixture by precipitation with L5 (Example 18)
Type: physicochemical
Conditions: 11 mM L5
Experimental: Stock solutions were pipetted into plastic 1×1 cm cuvettes to prepare reaction mixtures with concentrations as follows: • 1. […] 5 mM NdCl3 • 3. 5 mM DyCl3 • 4. 500 mM MOPS pH=7 • 5. the additive of interest, in a variable concentration; if possible, stock solutions were prepared from Na^+ salt forms of the compound; if not, the stock solutions were titrated by NaOH/HCl to pH=7 prior to addition (see Table 12 for additives and concentrations)
These aqueous reaction mixtures, each prepared to a total volume of 2.0 mL with the addition of water as necessary, were mixed by the use of a PTFE-coated stir bar on a magnetic stirrer. The cuvettes were sealed with transparent tape to prevent evaporation overnight. The reaction mixtures were stirred for 18 hours, at which point 500 μL aliquots of each reaction mixture were transferred into plastic 2 mL Eppendorf tubes and centrifuged. The supernatants were carefully pipetted out and transferred to a new set of tubes. The precipitate was dissolved by addition of 500 μL 1M HCl. The absolute concentration of Nd and Dy in each supernatant and precipitate was determined by ICP-OES.

NCC(=O)O [glycine]
Precipitate concentration [mM] Dy (additive 50 mM): 3.60 mM | Precipitate concentration [mM] Nd (additive 50 mM): 4.90 mM | Supernatant concentration [mM] Dy (additive 50 mM): 1.01 mM | Supernatant concentration [mM] Nd (additive 50 mM): 0.09 mM | Precipitate concentration [mM] Dy (additive 100 mM): 2.79 mM | Precipitate concentration [mM] Nd (additive 100 mM): 4.61 mM | Supernatant concentration [mM] Dy (additive 100 mM): 1.99 mM | Supernatant concentration [mM] Nd (additive 100 mM): 0.42 mM | Precipitate concentration [mM] Dy (additive 150 mM): 2.44 mM | Precipitate concentration [mM] Nd (additive 150 mM): 4.91 mM | Supernatant concentration [mM] Dy (additive 150 mM): 2.25 mM | Supernatant concentration [mM] Nd (additive 150 mM): 0.11 mM | Precipitate concentration [mM] Dy (additive 200 mM): 1.86 mM | Precipitate concentration [mM] Nd (additive 200 mM): 4.69 mM | Supernatant concentration [mM] Dy (additive 200 mM): 2.85 mM | Supernatant concentration [mM] Nd (additive 200 mM): 0.28 mM

OB(O)c1ccccc1 [phenylboronic acid]
Precipitate concentration [mM] Dy (additive 20 mM): 4.33 mM | Precipitate concentration [mM] Nd (additive 20 mM): 5.02 mM | Supernatant concentration [mM] Dy (additive 20 mM): 0.31 mM | Supernatant concentration [mM] Nd (additive 20 mM): 0.08 mM | Precipitate concentration [mM] Dy (additive 250 mM): 3.36 mM | Precipitate concentration [mM] Nd (additive 250 mM): 4.12 mM | Supernatant concentration [mM] Dy (additive 250 mM): 1.22 mM | Supernatant concentration [mM] Nd (additive 250 mM): 0.87 mM

O=CO [formate]
Precipitate concentration [mM] Dy (additive 50 mM): 4.33 mM | Precipitate concentration [mM] Nd (additive 50 mM): 5.17 mM | Supernatant concentration [mM] Dy (additive 50 mM): 0.51 mM | Supernatant concentration [mM] Nd (additive 50 mM): 0.07 mM | Precipitate concentration [mM] Dy (additive 100 mM): 3.84 mM | Precipitate concentration [mM] Nd (additive 100 mM): 4.85 mM | Supernatant concentration [mM] Dy (additive 100 mM): 1.09 mM | Supernatant concentration [mM] Nd (additive 100 mM): 0.42 mM | Precipitate concentration [mM] Dy (additive 250 mM): 3.33 mM | Precipitate concentration [mM] Nd (additive 250 mM): 5.38 mM | Supernatant concentration [mM] Dy (additive 250 mM): 1.68 mM | Supernatant concentration [mM] Nd (additive 250 mM): 0.11 mM | Precipitate concentration [mM] Dy (additive 500 mM): 2.09 mM | Precipitate concentration [mM] Nd (additive 500 mM): 4.93 mM | Supernatant concentration [mM] Dy (additive 500 mM): 2.51 mM | Supernatant concentration [mM] Nd (additive 500 mM): 0.22 mM

C[C@H](O)C(=O)O [l-lactate]
Precipitate concentration [mM] Dy (additive 5 mM): 3.15 mM | Precipitate concentration [mM] Nd (additive 5 mM): 4.33 mM | Supernatant concentration [mM] Dy (additive 5 mM): 1.59 mM | Supernatant concentration [mM] Nd (additive 5 mM): 0.51 mM | Precipitate concentration [mM] Dy (additive 10 mM): 2.08 mM | Precipitate concentration [mM] Nd (additive 10 mM): 4.49 mM | Supernatant concentration [mM] Dy (additive 10 mM): 2.47 mM | Supernatant concentration [mM] Nd (additive 10 mM): 0.21 mM | Precipitate concentration [mM] Dy (additive 15 mM): 1.60 mM | Precipitate concentration [mM] Nd (additive 15 mM): 4.38 mM | Supernatant concentration [mM] Dy (additive 15 mM): 3.21 mM | Supernatant concentration [mM] Nd (additive 15 mM): 0.49 mM | Precipitate concentration [mM] Dy (additive 20 mM): 1.18 mM | Precipitate concentration [mM] Nd (additive 20 mM): 4.33 mM | Supernatant concentration [mM] Dy (additive 20 mM): 3.57 mM | Supernatant concentration [mM] Nd (additive 20 mM): 0.50 mM

O=C(O)c1ccccc1O [salicylic acid]
Precipitate concentration [mM] Dy (additive 20 mM): 4.36 mM | Precipitate concentration [mM] Nd (additive 20 mM): 4.88 mM | Supernatant concentration [mM] Dy (additive 20 mM): 0.42 mM | Supernatant concentration [mM] Nd (additive 20 mM): 0.07 mM

O=C(O)[C@@H](O)c1ccccc1 [s-mandelic acid]
Precipitate concentration [mM] Dy (additive 20 mM): 1.13 mM | Precipitate concentration [mM] Nd (additive 20 mM): 4.52 mM | Supernatant concentration [mM] Dy (additive 20 mM): 3.77 mM | Supernatant concentration [mM] Nd (additive 20 mM): 0.47 mM

O=[N+]([O-])O [nitrate]
Precipitate concentration [mM] Dy (additive 100 mM): 4.27 mM | Precipitate concentration [mM] Nd (additive 100 mM): 4.39 mM | Supernatant concentration [mM] Dy (additive 100 mM): 0.36 mM | Supernatant concentration [mM] Nd (additive 100 mM): 0.14 mM | Precipitate concentration [mM] Dy (additive 200 mM): 3.89 mM | Precipitate concentration [mM] Nd (additive 200 mM): 3.97 mM | Supernatant concentration [mM] Dy (additive 200 mM): 0.41 mM | Supernatant concentration [mM] Nd (additive 200 mM): 0.15 mM | Precipitate concentration [mM] Dy (additive 500 mM): 4.16 mM | Precipitate concentration [mM] Nd (additive 500 mM): 4.46 mM | Supernatant concentration [mM] Dy (additive 500 mM): 0.82 mM | Supernatant concentration [mM] Nd (additive 500 mM): 0.14 mM | Precipitate concentration [mM] Dy (additive 1000 mM): 3.23 mM | Precipitate concentration [mM] Nd (additive 1000 mM): 4.61 mM | Supernatant concentration [mM] Dy (additive 1000 mM): 1.72 mM | Supernatant concentration [mM] Nd (additive 1000 mM): 0.15 mM

F [fluoride]
Precipitate concentration [mM] Dy (additive 5 mM): 4.87 mM | Precipitate concentration [mM] Nd (additive 5 mM): 6.21 mM | Supernatant concentration [mM] Dy (additive 5 mM): 1.21 mM | Supernatant concentration [mM] Nd (additive 5 mM): 0.13 mM | Precipitate concentration [mM] Dy (additive 10 mM): 3.82 mM | Precipitate concentration [mM] Nd (additive 10 mM): 6.15 mM | Supernatant concentration [mM] Dy (additive 10 mM): 2.34 mM | Supernatant concentration [mM] Nd (additive 10 mM): 0.18 mM | Precipitate concentration [mM] Dy (additive 15 mM): 2.72 mM | Precipitate concentration [mM] Nd (additive 15 mM): 5.68 mM | Supernatant concentration [mM] Dy (additive 15 mM): 3.26 mM | Supernatant concentration [mM] Nd (additive 15 mM): 0.49 mM

O=C(O)CC(O)(CC(=O)O)C(=O)O [citrate]
Precipitate concentration [mM] Dy (additive 1 mM): 4.03 mM | Precipitate concentration [mM] Nd (additive 1 mM): 4.30 mM | Supernatant concentration [mM] Dy (additive 1 mM): 0.38 mM | Supernatant concentration [mM] Nd (additive 1 mM): 0.14 mM | Precipitate concentration [mM] Dy (additive 5 mM): 3.62 mM | Precipitate concentration [mM] Nd (additive 5 mM): 4.77 mM | Supernatant concentration [mM] Dy (additive 5 mM): 1.24 mM | Supernatant concentration [mM] Nd (additive 5 mM): 0.19 mM | Precipitate concentration [mM] Dy (additive 10 mM): 2.38 mM | Precipitate concentration [mM] Nd (additive 10 mM): 4.49 mM | Supernatant concentration [mM] Dy (additive 10 mM): 2.27 mM | Supernatant concentration [mM] Nd (additive 10 mM): 0.25 mM | Precipitate concentration [mM] Dy (additive 20 mM): 1.21 mM | Precipitate concentration [mM] Nd (additive 20 mM): 4.08 mM | Supernatant concentration [mM] Dy (additive 20 mM): 3.52 mM | Supernatant concentration [mM] Nd (additive 20 mM): 0.66 mM

O=C(O)c1cccc(C(=O)O)n1 [dipicolinic acid]
Precipitate concentration [mM] Dy (additive 20 mM): 0.36 mM | Precipitate concentration [mM] Nd (additive 20 mM): 2.66 mM | Supernatant concentration [mM] Dy (additive 20 mM): 4.29 mM | Supernatant concentration [mM] Nd (additive 20 mM): 2.21 mM

c1ccncc1 [pyridine]
Precipitate concentration [mM] Dy (additive 20 mM): 4.33 mM | Precipitate concentration [mM] Nd (additive 20 mM): 4.90 mM | Supernatant concentration [mM] Dy (additive 20 mM): 0.28 mM | Supernatant concentration [mM] Nd (additive 20 mM): 0.06 mM | Precipitate concentration [mM] Dy (additive 250 mM): 4.02 mM | Precipitate concentration [mM] Nd (additive 250 mM): 4.67 mM | Supernatant concentration [mM] Dy (additive 250 mM): 0.41 mM | Supernatant concentration [mM] Nd (additive 250 mM): 0.09 mM

O=C(O)c1ccccn1 [picolinic acid]
Precipitate concentration [mM] Dy (additive 20 mM): 0 mM | Precipitate concentration [mM] Nd (additive 20 mM): 0 mM | Supernatant concentration [mM] Dy (additive 20 mM): 5 mM | Supernatant concentration [mM] Nd (additive 20 mM): 5 mM

N#C[S-].[Na+] [thiocyanate]
Precipitate concentration [mM] Dy (additive 100 mM): 4.46 mM | Precipitate concentration [mM] Nd (additive 100 mM): 4.66 mM | Supernatant concentration [mM] Dy (additive 100 mM): 0.31 mM | Supernatant concentration [mM] Nd (additive 100 mM): 0.14 mM | Precipitate concentration [mM] Dy (additive 200 mM): 4.42 mM | Precipitate concentration [mM] Nd (additive 200 mM): 4.60 mM | Supernatant concentration [mM] Dy (additive 200 mM): 0.51 mM | Supernatant concentration [mM] Nd (additive 200 mM): 0.41 mM | Precipitate concentration [mM] Dy (additive 500 mM): 4.16 mM | Precipitate concentration [mM] Nd (additive 500 mM): 4.65 mM | Supernatant concentration [mM] Dy (additive 500 mM): 0.72 mM | Supernatant concentration [mM] Nd (additive 500 mM): 0.36 mM | Precipitate concentration [mM] Dy (additive 1000 mM): 3.26 mM | Precipitate concentration [mM] Nd (additive 1000 mM): 4.63 mM | Supernatant concentration [mM] Dy (additive 1000 mM): 1.70 mM | Supernatant concentration [mM] Nd (additive 1000 mM): 0.41 mM

O=C(O)CO [glycolate]
Precipitate concentration [mM] Dy (additive 5 mM): 2.61 mM | Precipitate concentration [mM] Nd (additive 5 mM): 4.64 mM | Supernatant concentration [mM] Dy (additive 5 mM): 1.73 mM | Supernatant concentration [mM] Nd (additive 5 mM): 0.09 mM | Precipitate concentration [mM] Dy (additive 10 mM): 1.71 mM | Precipitate concentration [mM] Nd (additive 10 mM): 4.92 mM | Supernatant concentration [mM] Dy (additive 10 mM): 2.93 mM | Supernatant concentration [mM] Nd (additive 10 mM): 0.20 mM | Precipitate concentration [mM] Dy (additive 15 mM): 1.11 mM | Precipitate concentration [mM] Nd (additive 15 mM): 4.54 mM | Supernatant concentration [mM] Dy (additive 15 mM): 3.13 mM | Supernatant concentration [mM] Nd (additive 15 mM): 0.35 mM | Precipitate concentration [mM] Dy (additive 20 mM): 0.82 mM | Precipitate concentration [mM] Nd (additive 20 mM): 4.33 mM | Supernatant concentration [mM] Dy (additive 20 mM): 3.82 mM | Supernatant concentration [mM] Nd (additive 20 mM): 0.64 mM
